Measurements: the NIST ThermoML archive (doi:10.1016/j.tca.2013.08.031)
Where “and” joins values, the source holds several entries; their conditions need not be identical. Equal values may be shown once.

Test: molar heat capacity at constant volume
Conditions: Fluid (supercritical or subcritical phases), Vacuum adiabatic calorimetry

CCC(C)O (stereo unspecified) [butan-2-ol]
Conditions | molar heat capacity at constant volume
375.31 K, Mass density=735.98 kg/m3 | 219.47 J/K/mol
375.53 K, Mass density=735.98 kg/m3 | 217.99 J/K/mol
375.75 K, Mass density=735.98 kg/m3 | 218.29 J/K/mol
375.97 K, Mass density=735.98 kg/m3 | 219.25 J/K/mol
376.19 K, Mass density=735.98 kg/m3 | 217.99 J/K/mol
376.42 K, Mass density=735.98 kg/m3 | 219.47 J/K/mol
376.64 K, Mass density=735.98 kg/m3 | 218.29 J/K/mol
376.86 K, Mass density=735.98 kg/m3 | 219.47 J/K/mol
377.08 K, Mass density=735.98 kg/m3 | 217.77 J/K/mol
377.3 K, Mass density=735.98 kg/m3 | 219.55 J/K/mol
377.52 K, Mass density=735.98 kg/m3 | 219.33 J/K/mol
407.02 K, Mass density=683.53 kg/m3 | 273.88 J/K/mol
407.23 K, Mass density=683.53 kg/m3 | 278.47 J/K/mol
407.44 K, Mass density=683.53 kg/m3 | 275.51 J/K/mol
407.65 K, Mass density=683.53 kg/m3 | 274.18 J/K/mol
407.86 K, Mass density=683.53 kg/m3 | 273.95 J/K/mol
408.07 K, Mass density=683.53 kg/m3 | 279.22 J/K/mol
408.28 K, Mass density=683.53 kg/m3 | 277.29 J/K/mol
408.49 K, Mass density=683.53 kg/m3 | 260.39 J/K/mol
408.7 K, Mass density=683.53 kg/m3 | 246.01 J/K/mol
408.91 K, Mass density=683.53 kg/m3 | 240.23 J/K/mol
409.12 K, Mass density=683.53 kg/m3 | 236.6 J/K/mol
409.33 K, Mass density=683.53 kg/m3 | 234.08 J/K/mol
409.54 K, Mass density=683.53 kg/m3 | 232.22 J/K/mol
409.75 K, Mass density=683.53 kg/m3 | 224.59 J/K/mol
409.96 K, Mass density=683.53 kg/m3 | 223.4 J/K/mol
410.17 K, Mass density=683.53 kg/m3 | 224.22 J/K/mol
410.38 K, Mass density=683.53 kg/m3 | 222.66 J/K/mol
413.11 K, Mass density=648.53 kg/m3 | 272.62 J/K/mol
413.31 K, Mass density=648.53 kg/m3 | 273.21 J/K/mol
413.52 K, Mass density=648.53 kg/m3 | 273.66 J/K/mol
413.73 K, Mass density=648.53 kg/m3 | 273.51 J/K/mol
413.94 K, Mass density=648.53 kg/m3 | 272.62 J/K/mol
414.15 K, Mass density=648.53 kg/m3 | 272.84 J/K/mol
414.78 K, Mass density=683.53 kg/m3 | 226.66 J/K/mol
414.99 K, Mass density=683.53 kg/m3 | 226.89 J/K/mol
415.19 K, Mass density=683.53 kg/m3 | 227.55 J/K/mol and 227.85 J/K/mol
419.77 K, Mass density=683.53 kg/m3 | 228.67 J/K/mol
419.97 K, Mass density=683.53 kg/m3 | 227.55 J/K/mol
420.6 K, Mass density=683.53 kg/m3 | 230.59 J/K/mol
421.42 K, Mass density=683.53 kg/m3 | 231.85 J/K/mol
421.63 K, Mass density=683.53 kg/m3 | 230 J/K/mol
422.25 K, Mass density=683.53 kg/m3 | 230.81 J/K/mol
422.46 K, Mass density=683.53 kg/m3 | 231.11 J/K/mol
422.66 K, Mass density=683.53 kg/m3 | 231.85 J/K/mol
422.87 K, Mass density=683.53 kg/m3 | 231.33 J/K/mol
423.08 K, Mass density=683.53 kg/m3 | 231.41 J/K/mol
423.28 K, Mass density=683.53 kg/m3 | 230.81 J/K/mol
423.49 K, Mass density=683.53 kg/m3 | 231.48 J/K/mol
423.69 K, Mass density=683.53 kg/m3 | 231.93 J/K/mol
424.31 K, Mass density=683.53 kg/m3 | 231.11 J/K/mol
424.52 K, Mass density=683.53 kg/m3 | 230.52 J/K/mol
424.72 K, Mass density=683.53 kg/m3 | 230.81 J/K/mol
424.93 K, Mass density=683.53 kg/m3 | 230.44 J/K/mol
425.14 K, Mass density=683.53 kg/m3 | 231.33 J/K/mol
425.75 K, Mass density=683.53 kg/m3 | 231.19 J/K/mol
425.96 K, Mass density=683.53 kg/m3 | 230.89 J/K/mol and 228.44 J/K/mol
426.16 K, Mass density=683.53 kg/m3 | 227.48 J/K/mol
426.37 K, Mass density=683.53 kg/m3 | 226.74 J/K/mol
426.58 K, Mass density=683.53 kg/m3 | 227.41 J/K/mol
426.78 K, Mass density=683.53 kg/m3 | 227.03 J/K/mol
426.99 K, Mass density=683.53 kg/m3 | 227.48 J/K/mol
431.29 K, Mass density=648.53 kg/m3 | 278.03 J/K/mol
431.49 K, Mass density=648.53 kg/m3 | 279.14 J/K/mol
431.7 K, Mass density=648.53 kg/m3 | 277.66 J/K/mol
431.9 K, Mass density=648.53 kg/m3 | 277.88 J/K/mol
432.31 K, Mass density=648.53 kg/m3 | 278.77 J/K/mol
432.51 K, Mass density=648.53 kg/m3 | 277.14 J/K/mol
432.72 K, Mass density=648.53 kg/m3 | 277.44 J/K/mol
432.92 K, Mass density=648.53 kg/m3 | 279.22 J/K/mol
432.92 K, Mass density=683.53 kg/m3 | 227.18 J/K/mol
433.12 K, Mass density=648.53 kg/m3 | 278.55 J/K/mol
433.12 K, Mass density=683.53 kg/m3 | 228 J/K/mol
433.33 K, Mass density=648.53 kg/m3 | 272.99 J/K/mol
433.33 K, Mass density=683.53 kg/m3 | 227.63 J/K/mol
433.53 K, Mass density=648.53 kg/m3 | 225.03 J/K/mol
433.53 K, Mass density=683.53 kg/m3 | 227.78 J/K/mol
433.73 K, Mass density=648.53 kg/m3 | 224.81 J/K/mol
433.73 K, Mass density=683.53 kg/m3 | 228.29 J/K/mol
433.94 K, Mass density=648.53 kg/m3 | 222.29 J/K/mol
434.14 K, Mass density=648.53 kg/m3 | 223.48 J/K/mol
434.55 K, Mass density=648.53 kg/m3 | 221.92 J/K/mol
434.75 K, Mass density=648.53 kg/m3 | 221.25 J/K/mol
434.96 K, Mass density=648.53 kg/m3 | 222.96 J/K/mol
435.16 K, Mass density=648.53 kg/m3 | 222.74 J/K/mol
435.36 K, Mass density=648.53 kg/m3 | 222.88 J/K/mol
449.87 K, Mass density=598.18 kg/m3 | 278.18 J/K/mol
450.07 K, Mass density=598.18 kg/m3 | 277.14 J/K/mol
450.27 K, Mass density=598.18 kg/m3 | 279.22 J/K/mol
450.47 K, Mass density=598.18 kg/m3 | 276.18 J/K/mol
450.66 K, Mass density=598.18 kg/m3 | 277.36 J/K/mol
457.62 K, Mass density=648.53 kg/m3 | 222.14 J/K/mol
457.82 K, Mass density=598.18 kg/m3 | 274.62 J/K/mol
457.82 K, Mass density=648.53 kg/m3 | 221.85 J/K/mol
458.02 K, Mass density=598.18 kg/m3 | 274.4 J/K/mol
458.02 K, Mass density=648.53 kg/m3 | 222.88 J/K/mol
458.22 K, Mass density=598.18 kg/m3 | 277.66 J/K/mol
458.22 K, Mass density=648.53 kg/m3 | 224.51 J/K/mol
458.41 K, Mass density=598.18 kg/m3 | 277.29 J/K/mol
458.41 K, Mass density=648.53 kg/m3 | 223.62 J/K/mol
458.61 K, Mass density=598.18 kg/m3 | 278.85 J/K/mol
458.81 K, Mass density=598.18 kg/m3 | 277.59 J/K/mol
459.01 K, Mass density=598.18 kg/m3 | 279.44 J/K/mol
462.16 K, Mass density=598.18 kg/m3 | 275.88 J/K/mol
462.36 K, Mass density=598.18 kg/m3 | 274.69 J/K/mol
462.56 K, Mass density=598.18 kg/m3 | 273.58 J/K/mol
